# Measurements as given in the supplement of paper PMC10307832.
# How the values were obtained:
# Test in all cases: relative viability (nuclei count vs DMSO), 5 days (fraction); higher = more cells survive
# NCI-H2228 = tested on: NCI-H2228
# Procedure, shortened: (§1)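 Relative viability was taken as the ratio of nuclei in treated wells to nuclei in vehicle wells. Lung cancer cell lines in 1536-well plates received compounds by pin tool one day after seeding, either one drug alone or a fixed anchor-drug dose plus five library-drug doses (not always all listed) in √10 steps. Nuclei were counted on 4× images after 5 days of treatment, and values are medians of duplicate plates.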
# NCI-H1793 = tested on: NCI-H1793
# Procedure, shortened: as §1
# NCI-H1666 = tested on: NCI-H1666
# Procedure, shortened: as §1
# LU99A = tested on: LU99A
# Procedure, shortened: as §1
# LOU-NH91 = tested on: LOU-NH91
# Procedure, shortened: as §1
# NCI-H1355 = tested on: NCI-H1355
# Procedure, shortened: as §1
# NCI-H460 = tested on: NCI-H460
# Procedure, shortened: as §1
# NCI-H23 = tested on: NCI-H23
# Procedure, shortened: as §1
# BEN = tested on: BEN
# Procedure, shortened: as §1
# SW 1573 = tested on: SW 1573
# Procedure, shortened: as §1
# LC-2-ad = tested on: LC-2-ad
# Procedure, shortened: as §1
# A-427 = tested on: A-427
# Procedure, shortened: as §1
# NCI-H650 = tested on: NCI-H650
# Procedure, shortened: as §1
# PC-3 [JPC-3] = tested on: PC-3 [JPC-3]
# Procedure, shortened: as §1
# LCLC-97TM1 = tested on: LCLC-97TM1
# Procedure, shortened: as §1
# NCI-H1993 = tested on: NCI-H1993
# Procedure, shortened: as §1
# NCI-H838 = tested on: NCI-H838
# Procedure, shortened: as §1
# NCI-H1915 = tested on: NCI-H1915
# Procedure, shortened: as §1
# NCI-H520 = tested on: NCI-H520
# Procedure, shortened: as §1
# RERF-LC-KJ = tested on: RERF-LC-KJ
# Procedure, shortened: as §1
# EKVX = tested on: EKVX
# Procedure, shortened: as §1
# NCI-H2347 = tested on: NCI-H2347
# Procedure, shortened: as §1
smiles,measurement,setting,value
Cc1cnc(-c2cnc(NCCNc3ccc(C#N)cn3)nc2-c2ccc(Cl)cc2Cl)[nH]1 + C[C@]1(O)C[C@@H](c2nc(-c3ccc4ccc(-c5ccccc5)nc4c3)c3c(N)nccn32)C1 [Linsitinib] (partner 1 µM),relative viability,NCI-H2228; first compound 0.08 µM,0.678
same,relative viability,NCI-H2228; first compound 0.253 µM,0.637
same,relative viability,NCI-H2228; first compound 0.8 µM,0.597
same,relative viability,NCI-H2228; first compound 2.53 µM,0.481
same,relative viability,NCI-H1793; first compound 0.08 µM,1.16
same,relative viability,NCI-H1793; first compound 0.253 µM,0.822
same,relative viability,NCI-H1793; first compound 0.8 µM,0.809
same,relative viability,NCI-H1793; first compound 2.53 µM,0.916
same,relative viability,NCI-H1666; first compound 0.08 µM,0.926
same,relative viability,NCI-H1666; first compound 0.253 µM,0.868
same,relative viability,NCI-H1666; first compound 0.8 µM,0.921
same,relative viability,NCI-H1666; first compound 2.53 µM,0.976
same,relative viability,LU99A; first compound 0.08 µM,0.592
same,relative viability,LU99A; first compound 0.253 µM,0.538
same,relative viability,LU99A; first compound 0.8 µM,0.5
same,relative viability,LU99A; first compound 2.53 µM,0.569
same,relative viability,LOU-NH91; first compound 0.08 µM,1.07
same,relative viability,LOU-NH91; first compound 0.253 µM,0.951
same,relative viability,LOU-NH91; first compound 0.8 µM,0.969
same,relative viability,LOU-NH91; first compound 2.53 µM,0.89
same,relative viability,NCI-H1355; first compound 0.08 µM,0.88
same,relative viability,NCI-H1355; first compound 0.253 µM,0.841
same,relative viability,NCI-H1355; first compound 0.8 µM,0.765
same,relative viability,NCI-H1355; first compound 2.53 µM,0.732
same,relative viability,NCI-H460; first compound 0.08 µM,0.918
same,relative viability,NCI-H460; first compound 0.253 µM,0.623
same,relative viability,NCI-H460; first compound 0.8 µM,0.974
same,relative viability,NCI-H460; first compound 2.53 µM,0.782
same,relative viability,NCI-H23; first compound 0.08 µM,0.674
same,relative viability,NCI-H23; first compound 0.253 µM,0.555
same,relative viability,NCI-H23; first compound 0.8 µM,0.536
same,relative viability,NCI-H23; first compound 2.53 µM,0.691
same,relative viability,BEN; first compound 0.08 µM,0.951
same,relative viability,BEN; first compound 0.253 µM,0.843
same,relative viability,BEN; first compound 0.8 µM,0.994
same,relative viability,BEN; first compound 2.53 µM,0.928
same,relative viability,SW 1573; first compound 0.08 µM,0.945
same,relative viability,SW 1573; first compound 0.253 µM,0.744
same,relative viability,SW 1573; first compound 0.8 µM,0.845
same,relative viability,SW 1573; first compound 2.53 µM,0.695
same,relative viability,LC-2-ad; first compound 0.08 µM,0.905
same,relative viability,LC-2-ad; first compound 0.8 µM,0.858
same,relative viability,LC-2-ad; first compound 2.53 µM,0.92
same,relative viability,A-427; first compound 0.08 µM,1.09
same,relative viability,A-427; first compound 0.253 µM,1.12
same,relative viability,A-427; first compound 0.8 µM,1.11
same,relative viability,A-427; first compound 2.53 µM,1.15
same,relative viability,NCI-H650; first compound 0.08 µM,1.02
same,relative viability,NCI-H650; first compound 0.253 µM,0.769
same,relative viability,NCI-H650; first compound 0.8 µM,0.93
same,relative viability,NCI-H650; first compound 2.53 µM,0.712
same,relative viability,PC-3 [JPC-3]; first compound 0.08 µM,0.93
same,relative viability,PC-3 [JPC-3]; first compound 0.253 µM,0.858
same,relative viability,PC-3 [JPC-3]; first compound 0.8 µM,0.943
same,relative viability,PC-3 [JPC-3]; first compound 2.53 µM,0.964
same,relative viability,LCLC-97TM1; first compound 0.08 µM,0.206
same,relative viability,LCLC-97TM1; first compound 0.253 µM,0.177
same,relative viability,LCLC-97TM1; first compound 0.8 µM,0.172
same,relative viability,LCLC-97TM1; first compound 2.53 µM,0.208
same,relative viability,NCI-H1993; first compound 0.08 µM,0.74
same,relative viability,NCI-H1993; first compound 0.253 µM,0.763
same,relative viability,NCI-H1993; first compound 0.8 µM,0.701
same,relative viability,NCI-H1993; first compound 2.53 µM,0.784
same,relative viability,NCI-H838; first compound 0.08 µM,1.02
same,relative viability,NCI-H838; first compound 0.253 µM,1.02
same,relative viability,NCI-H838; first compound 0.8 µM,1.25
same,relative viability,NCI-H838; first compound 2.53 µM,1.51
same,relative viability,NCI-H1915; first compound 0.08 µM,1.08
same,relative viability,NCI-H1915; first compound 0.8 µM,1.11
same,relative viability,NCI-H1915; first compound 2.53 µM,1.08
same,relative viability,NCI-H520; first compound 0.08 µM,0.974
same,relative viability,NCI-H520; first compound 0.253 µM,0.985
same,relative viability,NCI-H520; first compound 0.8 µM,0.965
same,relative viability,NCI-H520; first compound 2.53 µM,1.09
same,relative viability,RERF-LC-KJ; first compound 0.08 µM,0.948
same,relative viability,RERF-LC-KJ; first compound 0.253 µM,0.828
same,relative viability,RERF-LC-KJ; first compound 0.8 µM,0.843
same,relative viability,RERF-LC-KJ; first compound 2.53 µM,0.877
same,relative viability,EKVX; first compound 0.08 µM,1.07
same,relative viability,EKVX; first compound 0.253 µM,0.794
same,relative viability,EKVX; first compound 0.8 µM,0.934
same,relative viability,EKVX; first compound 2.53 µM,0.926
same,relative viability,NCI-H2347; first compound 0.08 µM,1.08
same,relative viability,NCI-H2347; first compound 0.253 µM,0.72
same,relative viability,NCI-H2347; first compound 0.8 µM,1
same,relative viability,NCI-H2347; first compound 2.53 µM,1.02
